One may read the melting point as the temperature of the solid-liquid transition.

In the case of `c1ccc(N2CCN(c3nc(N4CCOCC4)cc(N4CCOCC4)n3)CC2)cc1` [Compound 1, 4,6-dimorpholino-2-(4-phenylpiperazin-1-yl)pyrimidine], the melting point lay within 182 to 184 °C.

For the compound `c1ccc2c(c1)CN(c1nc(N3CCOCC3)cc(N3CCOCC3)n1)C2` [Compound 10, 2-(isoindolin-2-yl)-4,6-dimorpholinopyrimidine], the melting point was in the range of 194 to 198 °C.

Take `c1cnc(N2CCN(c3nc(N4CCOCC4)cc(N4CCOCC4)n3)CC2)nc1` [Compound 14, 4,6-dimorpholino-2-[4-(pyrimidin-2-yl)piperazin-1-yl]pyrimidine]: the melting point was 212 to 215 °C.

`c1ccc(C2CN(c3nc(N4CCOCC4)cc(N4CCOCC4)n3)CCN2)cc1` (stereo not drawn) [Compound 16, 4,6-dimorpholino-2-(3-phenylpiperazin-1-yl)pyrimidine] yielded a melting point of 100 to 104 °C.

For `c1ccc(C2CN(c3cc(N4CCOCC4)nc(N4CCOCC4)n3)CCN2)cc1` (stereo not drawn) [Compound 17, 2,4-dimorpholino-6-(3-phenylpiperazin-1-yl)pyrimidine], the melting point is 181 to 185 °C.

Compound `Fc1ccc(N2CCN(c3nc(N4CCOCC4)cc(N4CCOCC4)n3)CC2)cc1` [Compound 20, 2-[4-(4-fluorophenyl)piperazin-1-yl]-4,6-dimorpholinopyrimidine] yielded a melting point of 196 to 199 °C.

`Fc1ccc(N2CCN(c3cc(N4CCOCC4)nc(N4CCOCC4)n3)CC2)cc1` [Compound 21, 4-[4-(4-fluorophenyl)piperazin-1-yl]-2,6-dimorpholinopyrimidine] gave a melting point of 215 to 218 °C.

Compound `Cc1ccc(N2CCN(c3nc(N4CCOCC4)cc(N4CCOCC4)n3)CC2)cc1` [Compound 22, 2-[4-(4-methylphenyl)piperazin-1-yl]-4,6-dimorpholinopyrimidine] gave a melting point of 191 to 194 °C.

`CC(=O)c1ccc(N2CCN(c3nc(N4CCOCC4)cc(N4CCOCC4)n3)CC2)cc1` [Compound 24, 2-[4-(4-acetylphenyl)piperazin-1-yl]-4,6-dimorpholinopyrimidine] displayed a melting point of 162 to 166 °C.

The compound `CC(=O)c1ccc(N2CCN(c3cc(N4CCOCC4)nc(N4CCOCC4)n3)CC2)cc1` [Compound 25, 4-[4-(4-acetylphenyl)piperazin-1-yl]-2,6-dimorpholinopyrimidine] returned a melting point of 198 to 201 °C.

Compound `Clc1ccccc1N1CCN(c2nc(N3CCOCC3)cc(N3CCOCC3)n2)CC1` [Compound 26, 2-[4-(2-chlorophenyl)piperazin-1-yl]-4,6-dimorpholinopyrimidine] registered a melting point of 156 °C.

Compound `CCOc1ccccc1N1CCN(c2nc(N3CCOCC3)cc(N3CCOCC3)n2)CC1` [Compound 27, 2-[4-(2-ethoxyphenyl)piperazin-1-yl]-4,6-dimorpholinopyrimidine] displayed a melting point of 184 °C.

`Cc1ccccc1N1CCN(c2nc(N3CCOCC3)cc(N3CCOCC3)n2)CC1` [Compound 28, 2-[4-(2-methylphenyl)piperazin-1-yl]-4,6-dimorpholino-pyrimidine] registered a melting point of 149 °C.

With `Cc1cccc(N2CCN(c3nc(N4CCOCC4)cc(N4CCOCC4)n3)CC2)c1C` [Compound 29, 4,6-dimorpholino-2-[4-(2,3-xylyl)piperazin-1-yl]pyrimidine], the melting point turned out to be 141 °C.

`Fc1ccccc1N1CCN(c2nc(N3CCOCC3)cc(N3CCOCC3)n2)CC1` [Compound 31, 2-[4-(2-fluorophenyl)piperazin-1-yl]-4,6-dimorpholinopyrimidine] returned a melting point of 148 °C.

`COc1ccccc1N1CCN(c2nc(N3CCOCC3)cc(N3CCOCC3)n2)CC1` [Compound 32, 2-[4-(2-methoxyphenyl)piperazin-1-yl]-4,6-dimorpholinopyrimidine] had a melting point of 214 °C.

Regarding `Clc1ccc(N2CCN(c3nc(N4CCOCC4)cc(N4CCOCC4)n3)CC2)cc1` [Compound 33, 2-[4-(4-chlorophenyl)piperazin-1-yl]-4,6-dimorpholinopyrimidine], the melting point was 213 °C.

On to `OC1(c2ccccc2)CCN(c2nc(N3CCOCC3)cc(N3CCOCC3)n2)CC1` [Compound 36, 2-(4-hydroxy-4-phenylpiperidin-1-yl)-4,6-dimorpholinopyrimidine], for which the melting point is 157 to 159 °C.

On to `OC1(c2ccccc2)CCN(c2cc(N3CCOCC3)nc(N3CCOCC3)n2)CC1` [Compound 37, 4-(4-hydroxy-4-phenylpiperidin-1-yl)-2,6-dimorpholinopyrimidine], for which the melting point fell in the range of 189 to 192 °C.

`CC(=O)C1(c2ccccc2)CCN(c2nc(N3CCOCC3)cc(N3CCOCC3)n2)CC1` [Compound 38, 2-(4-acetyl-4-phenylpiperidin-1-yl)-4,6-dimorpholinopyrimidine]: the melting point lay within 115 to 118 °C.

With `CC(=O)C1(c2ccccc2)CCN(c2cc(N3CCOCC3)nc(N3CCOCC3)n2)CC1` [Compound 39, 4-(4-acetyl-4-phenylpiperidin-1-yl)-2,6-dimorpholinopyrimidine], the melting point lay in the range of 146 to 147 °C.

Regarding `C1=C(c2ccccc2)CCN(c2nc(N3CCOCC3)cc(N3CCOCC3)n2)C1` [Compound 40, 4,6-dimorpholino-2-[4-phenyl (1,2,5,6-tetrahydropyridin-1-yl)]pyrimidine], the melting point was 157 to 160 °C.

Compound `C1=C(c2ccccc2)CCN(c2cc(N3CCOCC3)nc(N3CCOCC3)n2)C1` [Compound 41, 2,4-dimorpholino-6-[4-phenyl (1,2,5,6-tetrahydropyridin-1-yl)]pyrimidine] yielded a melting point of 165 to 168 °C.

As to `c1c(N2CCOCC2)nc(N2CCN(C3CCCCC3)CC2)nc1N1CCOCC1` [Compound 42, 2-[4-(4-cyclohexyl)piperazin-1-yl]-4,6-dimorpholinopyrimidine], the melting point lay within 171 to 174 °C.

Compound `c1c(N2CCOCC2)nc(N2CCOCC2)nc1N1CCN(C2CCCCC2)CC1` [Compound 43, 4-[4-(4-cyclohexyl)piperazin-1-yl]-2,6-dimorpholinopyrimidine] came in with a melting point of 144 to 147 °C.

In turn, `Cc1c(N2CCOCC2)nc(N2CCN(c3ccccc3)CC2)nc1N1CCOCC1` [Compound 44, 5-methyl-4,6-dimorpholino-2-(4-phenylpiperazin-1-yl)pyrimidine] yielded a melting point of 99 to 102 °C.

In the case of `Cc1c(N2CCOCC2)nc(N2CCOCC2)nc1N1CCN(c2ccccc2)CC1` [Compound 45, 5-methyl-2,4-dimorpholino-6-(4-phenylpiperazin-1-yl)pyrimidine], the melting point lay within 149 to 152 °C.

In turn, `c1ccc(-c2c(N3CCOCC3)nc(N3CCN(c4ccccc4)CC3)nc2N2CCOCC2)cc1` [Compound 46, 4,6-dimorpholino-5-phenyl-2-(4-phenylpiperazin-1-yl)pyrimidine] returned a melting point of 163 to 165 °C.

For the compound `c1ccc(-c2c(N3CCOCC3)nc(N3CCOCC3)nc2N2CCN(c3ccccc3)CC2)cc1` [Compound 47, 2,4-dimorpholino-5-phenyl-6-(4-phenylpiperazin-1-yl)pyrimidine], the melting point was 203 to 206 °C.

On to `c1ccc(Cc2c(N3CCOCC3)nc(N3CCN(c4ccccc4)CC3)nc2N2CCOCC2)cc1` [Compound 48, 5-benzyl-4,6-dimorpholino-2-(4-phenylpiperazin-1-yl)pyrimidine], for which the melting point was in the range of 141 to 144 °C.

Values taken from patent US8563715B2, “Pyrimidine derivative having cell protecting effect and uses thereof” (Zenyaku Kogyo Kabushikikaisha, priority 2008, dated 2013).
